Structures are written as SMILES.

The target of one test is T1, Menin-MLL (Homo sapiens, UniProt O00255).
T1 construct: His-Menin (M1-L615 end); purchased BIORTUS BP9210
T1 sequence (O00255 1-615 isoform O00255-1): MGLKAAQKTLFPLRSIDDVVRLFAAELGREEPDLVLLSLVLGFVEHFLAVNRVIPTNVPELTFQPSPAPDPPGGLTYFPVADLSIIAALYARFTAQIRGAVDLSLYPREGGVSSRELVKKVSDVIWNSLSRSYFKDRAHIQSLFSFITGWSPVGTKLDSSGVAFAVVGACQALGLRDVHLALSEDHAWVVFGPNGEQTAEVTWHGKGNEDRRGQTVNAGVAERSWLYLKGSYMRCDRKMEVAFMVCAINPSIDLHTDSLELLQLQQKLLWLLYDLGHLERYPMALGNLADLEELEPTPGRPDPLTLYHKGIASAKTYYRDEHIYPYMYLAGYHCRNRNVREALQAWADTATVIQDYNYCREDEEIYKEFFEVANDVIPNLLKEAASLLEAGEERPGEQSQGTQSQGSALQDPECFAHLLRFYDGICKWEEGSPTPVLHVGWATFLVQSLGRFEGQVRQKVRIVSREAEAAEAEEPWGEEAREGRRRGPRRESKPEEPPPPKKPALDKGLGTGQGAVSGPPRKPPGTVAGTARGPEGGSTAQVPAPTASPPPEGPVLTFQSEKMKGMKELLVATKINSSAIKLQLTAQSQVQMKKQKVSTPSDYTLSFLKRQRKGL
The test is described as follows: Inhibitory activity against Menin-MLL binding (fluorescence polarization). The note with it: Menin-MLL IC50, fluorescence polarization; 150 nM His-Menin, 15 nM FITC-MLL; 25°C for 60 min. The gist of the method:
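Fluorescence polarization competition: compound and 150 nM His-tagged menin (residues M1-L615) sit 15 min at 25 °C in pH 7.5 HEPES buffer with NaCl, DTT and BSA; 15 nM FITC-labelled MLL peptide then binds for 60 min. IC50 fitted sigmoidally from mP values, duplicate wells.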
(Polarisation of emitted light reports the rotation of a fluorescent probe.)
`CCN(C(=O)c1cc(F)ccc1-c1cc(N2CCN(C(=O)C3NC4CCC3CC4)CC2)cn2c(C)ncc12)C(C)C` [Compound 59, N-ethyl-5-fluoro-2-(3-methyl-6-{4-[(1R,3S,4S)-2-azabicyclo[2.2.2]octan-3-carbonyl]piperazin-1-yl}imidazo[1,5-a]pyridin-8-yl)-N-(isopropyl)benzamide] displayed an IC50 of 23 nM.

Still in this test, the particulars now being: fluorescence polarization; 150 nM His-Menin, 15 nM FITC-MLL; 25°C for 60 min; read-out: Menin-MLL IC50.
In the case of `COc1cc(-c2ccc(CCN3CCN(c4cc(-c5ccc(F)cc5C(=O)N5CCOC[C@H]5C)c5cnc(C)n5c4)CC3)cc2)nnc1OC` [Example 86], the IC50 worked out at 152 nM.
The same measure, in the same setting: for `CCN(C(=O)c1cc(F)ccc1-c1cc(C2CN([C@@H](CCCN3CCN(C(C)=O)CC3)C(C)C)C2)cn2c(C)ncc12)C(C)C` [Example 311-1, 2-(6-{1-[(3S)-6-(4-acetylpiperazin-1-yl)-2-methylhexan-3-yl]azacyclobutan-3-yl}-3-methylimidazo[1,5-a]pyridin-8-yl)-N-ethyl-5-fluoro-N-(isopropyl)benzamide] the value was 42 nM; for `COCCN(C)CCCC(C(C)C)N1CC(c2cc(-c3ccc(F)cc3C(=O)N(CC(F)F)C(C)C)c3cnccn23)C1` (stereo not shown) [Example 147, N-(2,2-difluoroethyl)-5-fluoro-2-[6-(1-{6-[(2-methoxyethyl)(methyl)amino]-2-methylhexan-3-yl}azacyclobutan-3-yl)pyrrolo[1,2-a]pyrazin-8-yl]-N-(isopropyl)benzamide], 140 nM; for `CCN(C(=O)c1cc(F)ccc1-c1cc(C2CN([C@H](CN3CCN(C(C)=O)CC3)C(C)C)C2)cc2c1cnn2C)C(C)C` [Example 417], 62 nM.
On the same count and under the same terms, for `CCN(C(=O)c1cc(F)ccc1-c1cc(C2CCN(CC3CCCCC3)C2)cn2cncc12)C(C)C` (stereo not shown) [Example 44] the value was 29.5 nM; for `CCN(C(=O)c1cc(F)ccc1-c1cc(N2CCN(C(=O)[C@@H]3C[C@H](OC)CN3)CC2)cn2c(C)nc(Cl)c12)C(C)C` [Example 109], 96 nM; for `CCN(C(=O)c1cc(F)ccc1-c1cc(C2CN(C(C[C@H](O)CO)C(C)C)C2)cn2c(C)ncc12)C(C)C` (stereo partly drawn) [Example 437, 2-(6-{1-[(5S)-5,6-dihydroxyl-2-methylhexan-3-yl]azacyclobutan-3-yl}-3-methylimidazo[1,5-a]pyridin-8-yl)-N-ethyl-5-fluoro-N-(isopropyl)benzamide], 12 nM.
Same read-out and setting: for `Cc1nc(F)c2c(-c3ccc(F)cc3C(=O)N3CCOC[C@H]3C)cc(C3CN(CC4(O)CCOCC4)C3)cn12` [Example 239] the value was 199 nM; for `CCN(C(=O)c1cc(F)ccc1-c1cc(C2CCN(C[C@H]3CC[C@H](NC(=O)OC(C)(C)C)CC3)C2)cn2c(C)ncc12)C(C)C` (mixture of isomers) [Example 29, N-[(1r,4r)-4-{[3-(8-{2-[ethyl(isopropyl)aminoformyl]-4-fluorophenyl}-3-methylimidazo[1,5-a]pyridin-6-yl)pyrrolidin-1-yl]methyl}cyclohexyl]tert-butyl carbamate], 10.5 nM.
For the molecule `CCN(C(=O)c1cc(F)ccc1-c1cc(C2CN(C(CCCN3C[C@H]4C[C@@H]3CO4)C3(C)COC3)C2)cn2c(C)ncc12)C(C)C` (stereo partly drawn) [Example 485, N-ethyl-5-fluoro-2-(3-methyl-6-{1-[1-(3-methyloxacyclobutan-3-yl)-4-[(1R,4R)-2-oxa-5-azabicyclo[2.2.1]heptan-5-yl]butyl]azacyclobut-3-yl}imidazo[1,5-a]pyridin-8-yl)-N-(isopropyl)benzamide], the IC50 is 42 nM.
Turning to `CC(=O)N1C2CC1CN(CCC[C@H](C(C)C)N1CC(c3cc(-c4ccc(F)cc4C(=O)N4CCOC[C@H]4C)c4c(F)nc(C)n4c3)C1)C2` [Example 345], the half-maximal inhibitory concentration (IC50) amounted to 18 nM.
Still for that read-out and setting: for `CCN(C(=O)c1cc(F)ccc1-c1cc(C2CN([C@@H](CC[C@H]3COCCN3)C(C)C)C2)cn2c(C)ncc12)C(C)C` [Example 457-1, N-ethyl-5-fluoro-2-(3-methyl-6-{1-[(3S)-4-methyl-1-[(3S)-morpholin-3-yl]pentan-3-yl]azacyclobutan-3-yl}imidazo[1,5-a]pyridin-8-yl)-N-(isopropyl)benzamide] the value was 40 nM.

In general, IC50 refers to the concentration at which inhibition is half-maximal.

These data come from patent EP4782453A1 (Beyang Therapeutics Co., Ltd., priority 2023, dated 2025).
